Like-named read-outs stand apart in the source and are kept apart here.
Experiments:
iNKT cells [1] = assay: iNKT cell activation: cytokine secretion (ELISA) after co-culture with glycolipid-loaded CD1d-transfected HEK293 or HeLa cells; format: cell-based, human; details: for Delta LogEC50 IFN-γ / Delta LogEC50 IL-2 / Delta LogEC50 IL-13: KRN7000 vs 6-PEG3-NH2-GalCer; for EC50: Homo sapiens, iNKT, 6 h; for EC50 / LogEC50 IFN-γ / LogEC50 IL-2 / LogEC50 IL-13: 6 h co-culture
Experimental: (§1) Classically, CD1d expressing cells are incubated overnight in presence or in the absence of the compound to be assessed, allowing loading on the CD1d molecule. Then, CD1d cells are co-incubated with iNKTs. Six hours of co-culture are sufficient to be able to detect most of the cytokine release (such as IFN-γ, IL-13 and/or IL-2) in the supernatant. Various time of incubation, up to 48H, can be performed depending of the kinetic of some late cytokines (such as IL-10). The quantity or concentration of at least one cytokine is thus measured in the supernatant after an incubation time of from 6 hours to 48 hours. An increased quantity or concentration of at least one cytokine in the presence of the assessed compound by comparison to in its absence means that said compound is a iKNT stimulator.
(§2) To analyse ability of 6-PEG3-NHR-GalCer 2 and 6-Mal-PEGn-GalCer 3 to activate iNKTs, several types of presenting cells were used, such as HEK293 or HeLa cells transfected to express CD1d molecule on their membrane. Non-transfected cells were also used as negative control “at first glance” since presentation of glycolipids to iNKT cells is known to be dependent on CD1d.
(§3) These cells were then used as antigen presenting cells (APC) to compare the iNKT cell activation potency of the canonical α-GalCer (KRN7000) ligand to that of the analogue 6″-modified with an aminoPEG linking arm 6-PEG3-NH2-GalCer 2a. APC were loaded with glycolipids after co-incubation at various concentrations overnight. Next day, cells were washed and co-cultured with iNKTs (2 APC for 1 iNKT). After 6 hours, supernatants were collected, and cytokines secretions (IFN-γ and IL-2 for Th1 panel and IL-13 for Th2 panel) was measured by ELISA (FIGS. 2 and 3)
(§4) 6-PEG3-NHR-GalCer analogues of 6-PEG3-NH2-GalCer 2a were evaluated on transfected CD1d and non-CD1d Hela and HEK293 cells for secretion of INF-γ and IL13 stimulation (see FIGS. 10 and 11).

HeLa-CD1d cells = assay: Cytotoxicity induced by iNKTs on HeLa-CD1d cells (flow cytometry); format: cell-based; details: HeLa CD1d transfected cells, 24 hours co-culture (FIG. 7)
Experimental: Moreover, 6-PEG3-NH2-GalCer 2a is not only one of a strongest activator of iNKTs cells known for cytokine secretions, but that he is also able to induce a better iNKT cytotoxicity effect than KRN7000. iNKT were co-cultured with HeLa CD1 d transfected cells for 24 hours in presence of various concentration of glycolipids, then, mortality of target HeLa-CD1d cells was analysed by Flow Cytometry.

iNKT cells in PBMC = assay: iNKT phenotyping: expansion of iNKT cells in PBMC, CD8+/CD4+; format: cell-based, human; details: PBMC cultured ten days with high dose of glycolipid (FIG. 8)
Experimental: Comparative study was run to establish either a CD4 or CD8 orientation of the immune response can be induced using 6-PEG3-NH2-GalCer 2a vs KRN7000 (see FIG. 8). PBMC were cultured in presence of an high dose of KRN or 6-PEG3-NH2-GalCer 2a, after ten days, phenotype of iNKTs was analysed by Flow Cytometry.

HeLa-CD1d spheroid = assay: Cytotoxicity induced by iNKTs on HeLa-CD1d 3D spheroid model; format: cell-based; details: 72 hours, preliminary data (FIG. 9B)
CD1d = molecular target: T1, CD1d (Homo sapiens, UniProt P15813); assay: CD1d-dependency of iNKT activation: cytokine secretion in presence of anti-CD1d antibody; format: cell-based
T1 construct: endogenous in cells; host or cells: HEK293 (non-transfected) and HEK293-CD1d (transfected to express CD1d)
T1 sequence (P15813 20-335): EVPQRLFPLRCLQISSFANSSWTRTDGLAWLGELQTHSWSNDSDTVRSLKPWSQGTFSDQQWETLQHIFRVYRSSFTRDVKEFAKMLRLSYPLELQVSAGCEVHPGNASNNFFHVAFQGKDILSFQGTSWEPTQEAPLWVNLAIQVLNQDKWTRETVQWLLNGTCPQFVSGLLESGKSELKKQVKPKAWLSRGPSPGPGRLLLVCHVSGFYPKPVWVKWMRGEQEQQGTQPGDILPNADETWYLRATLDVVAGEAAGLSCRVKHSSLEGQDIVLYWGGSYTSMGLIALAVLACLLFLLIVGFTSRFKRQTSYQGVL
T1 sequence (P61769 21-119 partner): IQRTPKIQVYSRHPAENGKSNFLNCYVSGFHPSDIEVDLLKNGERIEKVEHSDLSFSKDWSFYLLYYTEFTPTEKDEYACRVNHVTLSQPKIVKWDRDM
Experimental: It was then checked whether iNKT cells activation might be provided by a very low expression of CD1d on the proper non-CD1d tumor cells that cannot be detected by flow cytometry. To this aim, the same activation experiments were performed but in presence of an anti-CD1d antibody. HEK293 cells and HEK293-CD1d were loaded with 6-PEG3-NH2-GalCer a2 as described previously. Before co-culture with iNKTs cells, loaded presenting cells were co-incubated with the anti-CD1d antibody for 1 hours, iNKTs were added directly in suspension and co-cultured 6 hours before cytokine analysis in supernatant (ELISA). If activation signal was provided by presentation of the modified glycolipid through CD1d, it was expected to observe a blockage, or at least a decrease, of cytokine secretion after blocking the signal with the anti-CD1d antibody.

iNKT cells [2] = assay: iNKT cell activation: cytokine secretion after co-culture with glycolipid-loaded non-transfected (non-CD1d) tumor cells; format: cell-based, human; details: for secretion of cytokines: non-CD1d Hela and HEK293 cells
Experimental: as §1, §2, §3
To confirm this discovery, various other colon, lung, embryonic kidney, cervical cancer cells lines were screened by RT-PCR to define those that express small levels of CD1d and to confirm their ability to self-present the new potent iNKT agonist (see Table 6).
as §4

[3] = HEK293 (embryonic kidney), non transfected, as presenting cells
[4] = HeLa (cervix), non transfected, as presenting cells
[5] = Meso13 (mesotheliome) as presenting cells
[6] = Meso34 (mesotheliome) as presenting cells
[7] = Meso225 (mesotheliome) as presenting cells
[8] = SW1116 (colon) as presenting cells

## CCCCCCCCCCCCCCCCCCCCCCCCCC(=O)N[C@@H](CO[C@H]1OC(COC(=O)NCCOCCOCCOCCNC(=O)CCOCCOCCOCCOCCOCCOCCNC(=O)CCN2C(=O)C=CC2=O)[C@H](O)C(O)[C@@H]1O)[C@H](O)[C@H](O)CCCCCCCCCCCCCC (some centres unmarked) [6-Mal-PEG6-GalCer 3a]
iNKT cells [1]; general statement, presenting cells not specified at the place
  iNKT activation potency (cytokine release) relative to KRN7000: ~10 fold

## CCCCCCCCCCCCCCCCCCCCCCCCCC(=O)N[C@@H](CO[C@H]1OC(COC(=O)NCCOCCOCCOCCN)[C@H](O)C(O)[C@@H]1O)[C@H](O)[C@H](O)CCCCCCCCCCCCCC (some centres unmarked) [6-PEG3-NH2-GalCer 2a]
HeLa-CD1d cells
  efficiency to induce iNKT cytotoxicity relative to KRN7000: ≥ 10 fold
iNKT cells in PBMC
  CD8+ / CD4+ orientation of the iNKT response: induces a higher cytotoxic CD8+ response from PBMC cells than KRN7000
HeLa-CD1d spheroid
  induction of cell death compared with KRN7000: more efficient than KRN7000 to induce cell death
CD1d; CD1d-HEK293 positive cells (FIG. 5A)
  inhibition of cytokine (IL-2) secretion by anti-CD1d antibody: only an incomplete inhibition
CD1d; non transfected (non CD1d) HEK293 cells (FIG. 5B)
  inhibition of cytokine (IL-2) secretion by anti-CD1d antibody: almost completely eliminated
iNKT cells [2]; HCT116 (colon) as presenting cells
  IFN-γ secretion 10^−7M: Low
iNKT cells [2]; [3]
  IFN-γ secretion 10^−7M: High
iNKT cells [2]; [4]
  IFN-γ secretion 10^−7M: High
iNKT cells [2]; [5]
  IFN-γ secretion 10^−7M: High
iNKT cells [2]; [6]
  IFN-γ secretion 10^−7M: High
iNKT cells [2]; [7]
  IFN-γ secretion 10^−7M: High
iNKT cells [2]; [8]
  IFN-γ secretion 10^−7M: High
iNKT cells [2]
  secretion of cytokines: significant dose response secretion of cytokines
iNKT cells [1]; CD1d-transfected HEK293 / HeLa cells
  cytokine secretion / iNKT activation potency relative to KRN7000: ~100 fold
iNKT cells [1]; HEK293-CD1d
  Delta LogEC50 IFN-γ: 2.333
  Delta LogEC50 IL-2: 1.55
  Delta LogEC50 IL-13: 2.534
iNKT cells [1]; HeLa-CD1d
  Delta LogEC50 IFN-γ: 1.877
  Delta LogEC50 IL-2: 1.495
  Delta LogEC50 IL-13: 2.089
iNKT cells [1]; HEK293-CD1d presenting cells, read-out: LogEC50 IFN-γ (converted)
  EC50: 0.0166 nM
iNKT cells [1]; HEK293-CD1d presenting cells, read-out: LogEC50 IL-2 (converted)
  EC50: 0.0589 nM
iNKT cells [1]; HEK293-CD1d presenting cells, read-out: LogEC50 IL-13 (converted)
  EC50: 0.0324 nM
iNKT cells [1]; HeLa-CD1d presenting cells, read-out: LogEC50 IFN-γ (converted)
  EC50: 0.0295 nM
iNKT cells [1]; HeLa-CD1d presenting cells, read-out: LogEC50 IL-2 (converted)
  EC50: 0.0155 nM
iNKT cells [1]; HeLa-CD1d presenting cells, read-out: LogEC50 IL-13 (converted)
  EC50: 0.117 nM

## CCCCCCCCCCCCCCCCCCCCCCCCCC(=O)N[C@@H](CO[C@H]1O[C@H](CO)[C@H](O)[C@H](O)[C@H]1O)[C@H](O)[C@H](O)CCCCCCCCCCCCCC [KRN7000, reference compound]
iNKT cells in PBMC
  CD8+ / CD4+ orientation of the iNKT response: seems to not distinguish CD4+ to CD8+ cells stimulation
iNKT cells [2]; [3]
  IFN-γ secretion 10^−7M: Low
iNKT cells [2]; [4]
  IFN-γ secretion 10^−7M: Low
iNKT cells [2]; [5]
  IFN-γ secretion 10^−7M: Low
iNKT cells [2]; [6]
  IFN-γ secretion 10^−7M: Low
iNKT cells [2]; [7]
  IFN-γ secretion 10^−7M: Low
iNKT cells [2]; [8]
  IFN-γ secretion 10^−7M: Low
iNKT cells [2]
  secretion of cytokines: very poorly active or ineffective
iNKT cells [1]; HEK293-CD1d presenting cells
  LogEC50 IFN-γ: −8.447
  LogEC50 IL-2: −8.680
  LogEC50 IL-13: −7.956
iNKT cells [1]; HeLa-CD1d presenting cells
  LogEC50 IFN-γ: −8.653
  LogEC50 IL-2: −9.315
  LogEC50 IL-13: −7.841

From patent US20230088717A1, “NEW IMMUNOSTIMULATORS AND USE THEREOF IN IMMUNOTHERAPY” (NANTES UNIVERSITÉ, priority 2020, published 2023)
